According to publication PMC4788259 (PLoS Neglected Tropical Diseases, 2016):
Like-named read-outs stand apart in the source and are kept apart here.

Experiments:
[1] = design: method as in earlier work; conditions: PLS, ref MMV; cited from earlier work
[2] = system: adult worms; design: method as in PMID 24416463; conditions: in vitro; read-out: IC50 against adult worms; cited from earlier work
[3] = system: E. multilocularis metacestode vesicles; test: microbe, parasite or virus in culture; conditions: Echinococcus multilocularis, 288 h, read-out: mean viability
[4] = system: Reuber rat hepatoma (RH) cells; test: alamarBlue viability assay on RH cells; format: cell-based; conditions: 120 h, 5 days
Description: (§1) For testing growth inhibitory effects on confluent host cells, cells were seeded in 96-well plates (10,000 cells per well for HFF and 50,000 cells per well for RH cells), in DMEM containing FBS (10%) and antibiotics (100 U penicillin, 100 μg streptomycin and 0.25 μg amphotericin B per mL medium) and were cultured overnight at 37°C, 5% CO2. Thereafter the drugs (10 μM) were added and diluted in a serial 1:2 dilutions down to 20 nM. The concentration range was further adjusted in subsequent setups. For testing growth inhibitory effects on proliferating cells, cells were seeded at 1,000 (HFF) and 5,000 (RH) cells per well, and were allowed to attach for 5 hours at 37°C before addition of the drugs. After 5 days of culture, cell viability was assessed by alamarBlue assay.

[5] = design: method as in earlier work; conditions: HMS, Mouse; ref MMV; cited from earlier work
[6] = system: murine macrophages; design: method as in PMID 23211970; conditions: cited from earlier work
[7] = system: E. multilocularis metacestodes; test: Transmission electron microscopy of treated metacestodes; format: cell-based, Echinococcus multilocularis; conditions: 5 days
Description: In vitro-cultured metacestodes were cultured for five days in the presence of 1.6, 0.8, 0.4 or 0.1 μM MMV665807, or in the absence of the drug, and were processed for TEM as previously described. In short, primary fixation was carried out in 2% glutaraldehyde in 0.1 M sodium-cacodylate buffer, pH 7.3 for 1 h, and post-fixation in 2% osmium tetroxide in 0.1 M sodium-cacodylate buffer for 2 h. Samples were then pre-stained in saturated uranyl acetate solution in water for 30 min, washed in water, and were stepwise dehydrated in ethanol (30%, 50%, 70%, 90%, and three times 100%). Subsequently specimens were embedded in epoxy resin and polymerization of the resin was carried out at 60°C for 12 h. Ultrathin sections were cut using an ultramicrotome (Reichert and Jung, Vienna, Austria), and were loaded onto formvar-carbon coated nickel grids (Plano GmbH, Marburg, Germany). Specimens were stained with uranyl acetate and lead citrate, and were viewed on a Phillips EM400 transmission electron microscope operating at 80 kV.

[8] = system: T. gondii; design: method as in PMID 22970937; conditions: cited from earlier work
[9] = system: human foreskin fibroblasts (HFF); test: alamarBlue viability assay on HFF; format: cell-based; conditions: Fibroblast, 120 h, 5 days
Description: as §1

## O=C(Nc1cccc(C(F)(F)F)c1)c1cc(Cl)ccc1O [MMV665807]
[1]
  % Remaining after Incubation (60 min) Human Plasma: 83.2%
[2]
  IC50: 0.6 to 1.3 µM
[3]
  viability at 0.1 µM: 59.7%
  viability at 0.2 µM: 65.5%
  viability at 0.4 µM: 69%
  viability at 0.8 µM: 97.9%
  viability at 1.6 µM: 5.29%
  viability at 3.1 µM: 6.06%
  viability at 6.3 µM: 4.71%
  viability at 12.5 µM: 2.84%
  viability at 25 µM: 2.92%
  viability at 50 µM: 2.9%
  viability at 100 µM: 3.06%
[4]; confluent cells, read-out: Confluent RH (IC50)
  IC50: 20.5 ± 0.13 µM
[4]; proliferating cells, read-out: Preconfluent RH (IC50)
  IC50: 4.3 ± 0.14 µM
[5]
  CLint: 18.17 L/h/kg
  t½: 27.2 min
[6]
  IC50: 5.9 µM
[7]; 0.1 μM and 0.4 μM
  ultrastructural alterations (TEM): did not show any major alterations
[7]; 0.8 μM
  ultrastructural alterations (TEM): Clear alterations in the Echinococcus ultrastructure
[7]; 1.6 μM
  ultrastructural alterations (TEM): clear signs of cell death
[8]
  in vitro activity against T. gondii: moderate in vitro activity
[9]; confluent cells, read-out: Confluent HFF (IC50)
  IC50: 29.2 ± 0.06 µM
[9]; proliferating cells, read-out: Preconfluent HFF (IC50)
  IC50: 4.8 ± 0.59 µM
